In patent publication US20100285032A1, “ESTROGEN RECEPTOR-RELATED RECEPTOR GAMMA (ERR GAMMA) IN BONE AND CARTILAGE FORMATION AND METHODS AND COMPOSITIONS RELATING TO SAME” (priority 2007, published 2010):

Tests used:
[1] = molecular target: T1, ERRγ (Homo sapiens, UniProt P62508); settings: cited from earlier work
T1 sequence (P62508 1-458): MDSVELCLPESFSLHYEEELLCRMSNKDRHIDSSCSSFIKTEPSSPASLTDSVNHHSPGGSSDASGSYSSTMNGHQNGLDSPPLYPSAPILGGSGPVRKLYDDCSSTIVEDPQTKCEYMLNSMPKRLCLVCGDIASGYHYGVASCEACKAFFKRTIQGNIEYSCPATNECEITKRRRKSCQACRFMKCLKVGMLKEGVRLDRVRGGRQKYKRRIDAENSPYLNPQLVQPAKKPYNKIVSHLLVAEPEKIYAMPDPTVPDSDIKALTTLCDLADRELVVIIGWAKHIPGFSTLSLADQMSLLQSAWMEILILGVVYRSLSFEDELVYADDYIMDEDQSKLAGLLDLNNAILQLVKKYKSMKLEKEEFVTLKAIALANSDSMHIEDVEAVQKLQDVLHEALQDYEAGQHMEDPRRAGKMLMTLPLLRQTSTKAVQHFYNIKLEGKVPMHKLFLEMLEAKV

[2] = test system: ERRs; settings: cited from earlier work
[3] = test system: PGC-1/ERRα; settings: cited from earlier work
[4] = molecular target: T2, ERRα (Homo sapiens, UniProt P11474); settings: yeast-based and mammalian transient transfection assays; cited from earlier work
T2 construct: host or cells: yeast
T2 sequence (P11474 1-423): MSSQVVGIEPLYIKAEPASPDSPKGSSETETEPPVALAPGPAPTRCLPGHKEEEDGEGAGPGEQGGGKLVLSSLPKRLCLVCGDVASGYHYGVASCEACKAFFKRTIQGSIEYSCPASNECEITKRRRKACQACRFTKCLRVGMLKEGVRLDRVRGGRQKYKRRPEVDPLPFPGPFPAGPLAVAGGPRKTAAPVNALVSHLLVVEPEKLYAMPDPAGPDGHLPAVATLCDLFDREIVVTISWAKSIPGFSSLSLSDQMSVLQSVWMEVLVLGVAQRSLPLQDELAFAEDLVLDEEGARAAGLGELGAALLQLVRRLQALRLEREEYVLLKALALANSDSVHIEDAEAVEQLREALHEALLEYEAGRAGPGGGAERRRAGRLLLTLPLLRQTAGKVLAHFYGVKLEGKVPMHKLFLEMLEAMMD

[5] = test system: rat calvaria (RC) cells; experiment: Bone nodule formation in rat calvaria (RC) cell cultures after oligonucleotide treatment; assay type: cell-based
Description: (§1) Cells were isolated from 21-day-old fetal Wistar rat or neonatal mouse calvariae or were the chondrogenic C5.18 cell line and were grown for osteogenic or chondrogenic differentiation as described previously (Bonnelye et al., 2001; Bonnelye et al., 2007). Medium was replaced every second day and cells were cultured at 37° C. in a 5% CO2 humidified atmosphere for 15-20 days until mineralized bone nodules or cartilage nodules had formed in control cultures.
(§2) Rat calvarial cells were plated into 24 well plates at 10^4 cells/well. Antisense oligonucleotide inhibition of ERRγ expression was accomplished with a 20-base phosphorothioate-modified oligonucleotide. Control dishes were treated with the complementary sense oligonucleotide or no oligonucleotide. Briefly, oligonucleotide concentrations that have been found previously not to be toxic (0.5 μM to 2 μM) were added directly to cells during the proliferation (day 1-5) or differentiation phase (day 5 (end of proliferation) to 11) in standard medium as above supplemented with 50 μg/ml ascorbic acid, 10 mM sodium β-glycerophosphate. Medium was changed every 2 days and fresh oligonucleotides were added at each change. At day 15, cultures were terminated and stained for alkaline phosphatase according to previous protocols (Bonnelye et al., 2001).

[6] = test system: C5.18 cells; experiment: Cartilage nodule formation in C5.18 cell cultures after oligonucleotide treatment; assay type: cell-based, rat; settings: C5.18 cultures, treated during differentiation phase
Description: as §1, §2

## 4-hydroxytamoxifen
[1]
  activity on ERRγ (agonist/antagonist): antagonize ERRγ
[2]
  activity on ERRs (agonist/antagonist): antagonists of ERRs

## CN(C)CCOc1ccc(/C(=C(/CCCl)c2ccccc2)c2ccc(O)cc2)cc1 [4-hydroxytoremifene]
[1]
  activity on ERRγ (agonist/antagonist): antagonize ERRγ

## O=c1cc(-c2ccc(O)c(O)c2)oc2ccc(O)cc12 [6,3′,4′-trihydroxyflavone]
[2]
  activity on ERRs (agonist/antagonist): agonists of ERRs

## CC(C)c1ccc(/C=N/NC(=O)c2ccc(O)cc2)cc1 [GSK4716]
[1]
  activity on ERRγ (agonist/antagonist): agonists of ERRγ

## COc1cc(/C=C(\C#N)C(=O)Nc2nnc(C(F)(F)F)s2)ccc1OCc1ccc(C(F)(F)F)cc1C(F)(F)F [XCT790]
[3]
  activity on PGC-1/ERRα dependent signaling: inverse agonists

## COc1ccc(-c2coc3cc(O)cc(O)c3c2=O)cc1 [biochanin A]
[2]
  activity on ERRs (agonist/antagonist): agonists of ERRs

## ClC1=C(Cl)C2(Cl)C3C(Cl)C(Cl)CC3C1(Cl)C2(Cl)Cl (stereo not shown) [chlordane]
[4]
  effect on constitutive activity of ERRα: suppress the constitutive activity of ERRα

## O=c1c(-c2ccc(O)cc2)coc2cc(O)ccc12 [daidzein]
[2]
  activity on ERRs (agonist/antagonist): agonists of ERRs

## CC/C(=C(/CC)c1ccc(O)cc1)c1ccc(O)cc1 [diethylstilbestrol]
[2]
  activity on ERRs (agonist/antagonist): antagonists of ERRs

## O=c1c(-c2ccc(O)cc2)coc2cc(O)cc(O)c12 [genistein]
[2]
  activity on ERRs (agonist/antagonist): agonists of ERRs

## CC1(C)C(C(Cl)Cl)C2(Cl)C(Cl)C(Cl)C1(Cl)C2(Cl)Cl (stereo not shown) [toxaphene]
[4]
  effect on constitutive activity of ERRα: suppress the constitutive activity of ERRα

## ggtGGTTGACGCTGTCCGTCagg (antisense GGTGGTTGACGCTGTCCGTCAGG; all phosphorothioate, sugars by position and methylation of C not given here) [antisense oligonucleotide]
[5]; RC cultures, treated during differentiation phase (day 5 to 11)
  bone nodule formation: significantly increased
[5]; RC cultures, treated during proliferation phase (day 1-5)
  bone nodule formation: significantly increased
[5]; rat calvaria osteoblastic cells, treatment phase not stated
  bone nodule formation: increases bone nodule formation
[6]
  cartilage nodule formation: tended to increase
